Laboratory results from the kinase profiling compilation of Christmann-Franck et al. (2016).

Legend:
Assay in all cases: radiometric filter-binding kinase assay
ABL1 (human) = ABL1 (human) (UniProt P00519)
CDK9 CCNT1 (human) = CDK9 CCNT1 (human) (UniProt P50750+O60563)
CSNK1G2 (human) = CSNK1G2 (human) (UniProt P78368)
DDR2 (human) = DDR2 (human) (UniProt Q16832)
EIF2AK3 (human) = EIF2AK3 (human) (UniProt Q9NZJ5)
IRAK1 (human) = IRAK1 (human) (UniProt P51617)
MAPKAPK3 (human) = MAPKAPK3 (human) (UniProt Q16644)
Sequence of MAPKAPK3 (human) (Q16644 whole entry, looked up): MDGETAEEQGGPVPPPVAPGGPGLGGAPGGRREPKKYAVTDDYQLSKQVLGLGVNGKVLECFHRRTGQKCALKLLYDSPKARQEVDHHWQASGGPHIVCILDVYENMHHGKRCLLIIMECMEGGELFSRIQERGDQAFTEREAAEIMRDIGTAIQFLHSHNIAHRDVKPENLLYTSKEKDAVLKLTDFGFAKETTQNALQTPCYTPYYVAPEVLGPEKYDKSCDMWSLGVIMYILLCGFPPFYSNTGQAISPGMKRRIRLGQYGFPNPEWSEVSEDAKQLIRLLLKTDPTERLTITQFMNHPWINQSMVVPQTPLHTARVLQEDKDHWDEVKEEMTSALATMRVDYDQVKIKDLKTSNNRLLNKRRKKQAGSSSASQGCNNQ

[1] = system: OXSR1 (human), O95747 [T185E]
PRKAA1 or PRKAA2 (rat) = details: accession and sequence are those of the human protein
PRKCG (human) = PRKCG (human) (UniProt P05129)
PTK6 (human) = PTK6 (human) (UniProt Q13882)
SIK2 (human) = SIK2 (human) (UniProt Q9H0K1)
Sequence of SIK2 (human) (Q9H0K1 whole entry, looked up): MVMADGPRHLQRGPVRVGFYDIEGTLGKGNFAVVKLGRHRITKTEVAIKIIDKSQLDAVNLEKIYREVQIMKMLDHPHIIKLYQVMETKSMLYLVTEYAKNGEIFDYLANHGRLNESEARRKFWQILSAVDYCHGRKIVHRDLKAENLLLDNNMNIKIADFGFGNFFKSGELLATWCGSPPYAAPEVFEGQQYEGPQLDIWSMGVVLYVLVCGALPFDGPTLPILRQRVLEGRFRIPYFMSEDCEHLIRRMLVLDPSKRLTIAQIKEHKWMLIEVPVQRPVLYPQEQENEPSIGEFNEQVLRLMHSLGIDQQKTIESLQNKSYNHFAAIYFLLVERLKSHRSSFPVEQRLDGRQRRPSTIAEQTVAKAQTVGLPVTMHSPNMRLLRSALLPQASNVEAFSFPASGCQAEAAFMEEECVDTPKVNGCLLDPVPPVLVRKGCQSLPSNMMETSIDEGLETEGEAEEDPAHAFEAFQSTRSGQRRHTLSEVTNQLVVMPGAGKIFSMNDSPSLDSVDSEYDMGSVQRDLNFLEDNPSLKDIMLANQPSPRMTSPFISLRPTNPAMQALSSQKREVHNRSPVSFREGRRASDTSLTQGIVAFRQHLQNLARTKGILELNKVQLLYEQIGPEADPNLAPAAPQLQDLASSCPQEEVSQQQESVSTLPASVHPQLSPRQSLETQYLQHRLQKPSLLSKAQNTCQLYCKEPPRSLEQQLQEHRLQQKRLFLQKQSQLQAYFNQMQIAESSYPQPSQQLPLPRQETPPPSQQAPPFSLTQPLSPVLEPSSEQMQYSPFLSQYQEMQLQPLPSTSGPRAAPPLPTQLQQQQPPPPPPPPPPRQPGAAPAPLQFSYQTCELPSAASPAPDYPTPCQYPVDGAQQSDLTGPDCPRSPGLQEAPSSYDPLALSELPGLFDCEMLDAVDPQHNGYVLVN

SIK3 (human) = SIK3 (human) (UniProt Q9Y2K2)
Sequence of SIK3 (human) (Q9Y2K2 whole entry, looked up): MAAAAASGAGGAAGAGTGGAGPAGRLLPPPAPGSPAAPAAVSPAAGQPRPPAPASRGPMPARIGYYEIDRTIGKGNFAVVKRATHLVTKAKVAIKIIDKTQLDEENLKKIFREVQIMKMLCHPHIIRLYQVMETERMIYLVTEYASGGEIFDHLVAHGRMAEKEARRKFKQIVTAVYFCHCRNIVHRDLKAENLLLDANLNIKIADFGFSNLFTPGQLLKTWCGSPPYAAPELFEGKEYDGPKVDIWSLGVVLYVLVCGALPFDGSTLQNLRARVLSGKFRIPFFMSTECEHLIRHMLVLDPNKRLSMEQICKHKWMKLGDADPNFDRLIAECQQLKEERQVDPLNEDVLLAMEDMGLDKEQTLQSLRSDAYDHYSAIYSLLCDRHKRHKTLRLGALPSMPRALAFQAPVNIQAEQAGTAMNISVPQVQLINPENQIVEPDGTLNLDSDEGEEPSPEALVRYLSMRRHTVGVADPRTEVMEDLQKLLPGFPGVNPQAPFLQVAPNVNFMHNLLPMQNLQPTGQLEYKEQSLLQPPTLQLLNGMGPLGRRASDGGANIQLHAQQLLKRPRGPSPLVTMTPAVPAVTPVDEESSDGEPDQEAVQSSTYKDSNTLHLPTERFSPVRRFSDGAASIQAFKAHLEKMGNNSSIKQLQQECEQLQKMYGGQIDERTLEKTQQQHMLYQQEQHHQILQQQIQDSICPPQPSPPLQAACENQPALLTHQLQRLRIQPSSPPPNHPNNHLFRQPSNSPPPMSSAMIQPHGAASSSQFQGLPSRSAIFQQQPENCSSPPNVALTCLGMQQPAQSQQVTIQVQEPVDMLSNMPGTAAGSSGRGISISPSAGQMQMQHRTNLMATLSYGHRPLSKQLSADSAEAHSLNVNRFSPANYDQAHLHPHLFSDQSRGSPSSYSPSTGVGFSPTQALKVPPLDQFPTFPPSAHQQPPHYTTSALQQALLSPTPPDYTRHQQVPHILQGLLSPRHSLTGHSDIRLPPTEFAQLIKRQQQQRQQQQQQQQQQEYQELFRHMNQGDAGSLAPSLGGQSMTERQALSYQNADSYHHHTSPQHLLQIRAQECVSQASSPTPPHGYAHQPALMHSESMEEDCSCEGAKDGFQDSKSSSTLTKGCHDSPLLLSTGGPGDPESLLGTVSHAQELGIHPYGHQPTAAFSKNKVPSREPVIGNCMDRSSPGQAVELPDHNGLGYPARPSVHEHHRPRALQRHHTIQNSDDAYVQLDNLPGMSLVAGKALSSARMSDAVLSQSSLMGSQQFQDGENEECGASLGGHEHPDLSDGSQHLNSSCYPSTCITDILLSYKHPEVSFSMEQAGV

STK16 (human) = STK16 (human) (UniProt O75716)
Sequence of STK16 (human) (O75716 whole entry, looked up): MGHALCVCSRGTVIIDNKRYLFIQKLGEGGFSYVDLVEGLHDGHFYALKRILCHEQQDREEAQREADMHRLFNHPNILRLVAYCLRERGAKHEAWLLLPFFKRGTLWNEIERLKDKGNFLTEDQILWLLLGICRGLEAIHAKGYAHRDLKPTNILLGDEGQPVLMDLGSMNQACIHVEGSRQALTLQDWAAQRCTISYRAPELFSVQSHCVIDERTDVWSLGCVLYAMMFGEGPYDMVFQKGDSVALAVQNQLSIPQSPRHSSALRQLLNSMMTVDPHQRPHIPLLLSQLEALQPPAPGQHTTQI

STK24 (human) = STK24 (human) (UniProt Q9Y6E0)
STK33 (human) = STK33 (human) (UniProt Q9BYT3)
TEK (human) = TEK (human) (UniProt Q02763)
TESK1 (human) = TESK1 (human) (UniProt Q15569)
Sequence of TESK1 (human) (Q15569 whole entry, looked up): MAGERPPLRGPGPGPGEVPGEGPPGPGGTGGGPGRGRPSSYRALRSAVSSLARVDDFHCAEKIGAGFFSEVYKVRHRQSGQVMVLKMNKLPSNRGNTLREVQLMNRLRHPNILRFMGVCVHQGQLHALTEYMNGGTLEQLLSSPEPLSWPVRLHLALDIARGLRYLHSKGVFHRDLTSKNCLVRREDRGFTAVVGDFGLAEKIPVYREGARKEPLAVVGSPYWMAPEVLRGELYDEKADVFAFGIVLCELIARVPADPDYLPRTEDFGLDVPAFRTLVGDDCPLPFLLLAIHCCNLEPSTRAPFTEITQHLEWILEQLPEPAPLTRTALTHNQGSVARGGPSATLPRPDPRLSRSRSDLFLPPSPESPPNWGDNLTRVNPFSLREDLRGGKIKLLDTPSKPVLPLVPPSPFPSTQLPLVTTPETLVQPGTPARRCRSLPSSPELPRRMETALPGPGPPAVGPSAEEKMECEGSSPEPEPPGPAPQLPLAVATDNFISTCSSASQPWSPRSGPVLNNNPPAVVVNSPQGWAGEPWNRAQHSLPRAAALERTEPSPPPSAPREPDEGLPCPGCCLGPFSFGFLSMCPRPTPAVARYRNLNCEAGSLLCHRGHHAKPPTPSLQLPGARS

TLK1 (human) = TLK1 (human) (UniProt Q9UKI8)
Sequence of TLK1 (human) (Q9UKI8 whole entry, looked up): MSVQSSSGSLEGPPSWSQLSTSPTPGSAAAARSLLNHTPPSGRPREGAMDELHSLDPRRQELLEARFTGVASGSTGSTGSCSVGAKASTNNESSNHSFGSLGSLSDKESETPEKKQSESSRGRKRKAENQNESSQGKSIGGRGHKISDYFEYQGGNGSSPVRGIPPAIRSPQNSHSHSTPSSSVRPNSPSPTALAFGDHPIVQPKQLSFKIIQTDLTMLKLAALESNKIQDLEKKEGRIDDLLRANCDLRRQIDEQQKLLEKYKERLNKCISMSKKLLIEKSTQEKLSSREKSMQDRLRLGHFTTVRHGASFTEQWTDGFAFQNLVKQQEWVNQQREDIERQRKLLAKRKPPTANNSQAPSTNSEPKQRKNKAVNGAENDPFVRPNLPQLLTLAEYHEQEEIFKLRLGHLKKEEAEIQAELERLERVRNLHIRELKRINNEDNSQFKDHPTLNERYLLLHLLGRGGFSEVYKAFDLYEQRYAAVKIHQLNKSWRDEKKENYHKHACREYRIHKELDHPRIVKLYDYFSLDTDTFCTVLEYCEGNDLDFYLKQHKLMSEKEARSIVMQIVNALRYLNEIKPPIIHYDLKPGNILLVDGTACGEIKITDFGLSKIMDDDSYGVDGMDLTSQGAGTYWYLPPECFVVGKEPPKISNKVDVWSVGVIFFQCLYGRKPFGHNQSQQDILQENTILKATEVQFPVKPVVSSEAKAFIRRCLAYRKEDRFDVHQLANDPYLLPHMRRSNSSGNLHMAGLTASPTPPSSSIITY

TSSK1B (human) = TSSK1B (human) (UniProt Q9BXA7)
TTBK1 (human) = TTBK1 (human) (UniProt Q5TCY1)
WNK1 (human) = WNK1 (human) (UniProt Q9H4A3)
ZAP70 (human) = ZAP70 (human) (UniProt P43403)
ULK1 (human) = ULK1 (human) (UniProt O75385)
ULK2 (human) = ULK2 (human) (UniProt Q8IYT8)

SMILES: CNc1nc(-c2ccc3c(N)n[nH]c3c2)cc(N2C[C@@H](C(=O)NC3CCCCC3)CC[C@H]2C)n1
- residual activity (ABL1 (human); compound 1.0 µM): 116%
- residual activity (ABL1 (human); compound 10.0 µM): 100%
- residual activity (CDK9 CCNT1 (human); compound 1.0 µM): 92%
- residual activity (CDK9 CCNT1 (human); compound 10.0 µM): 100%
- residual activity (CSNK1G2 (human); compound 1.0 µM): 101%
- residual activity (CSNK1G2 (human); compound 10.0 µM): 97%
- residual activity (DDR2 (human); compound 1.0 µM): 107%
- residual activity (EIF2AK3 (human); compound 1.0 µM): 100%
- residual activity (EIF2AK3 (human); compound 10.0 µM): 100%
- residual activity (IRAK1 (human); compound 1.0 µM): 105%
- residual activity (IRAK1 (human); compound 10.0 µM): 106%
- residual activity (MAPKAPK3 (human); compound 0.01 µM): 112%
- residual activity (MAPKAPK3 (human); compound 0.1 µM): 112%
- residual activity (MAPKAPK3 (human); compound 1.0 µM): 91%
- residual activity (MAPKAPK3 (human); compound 10.0 µM): 68%
- residual activity ([1]; compound 1.0 µM): 112%
- residual activity ([1]; compound 10.0 µM): 103%
- residual activity (PRKAA1 or PRKAA2 (rat); compound 0.01 µM): 107%
- residual activity (PRKAA1 or PRKAA2 (rat); compound 0.1 µM): 111%
- residual activity (PRKAA1 or PRKAA2 (rat); compound 1.0 µM): 91%
- residual activity (PRKAA1 or PRKAA2 (rat); compound 10.0 µM): 44%
- residual activity (PRKCG (human); compound 10.0 µM): 87%
- residual activity (PTK6 (human); compound 1.0 µM): 127%
- residual activity (PTK6 (human); compound 10.0 µM): 116%
- residual activity (SIK2 (human); compound 1.0 µM): 106%
- residual activity (SIK2 (human); compound 10.0 µM): 78%
- residual activity (SIK3 (human); compound 1.0 µM): 76%
- residual activity (SIK3 (human); compound 10.0 µM): 58%
- residual activity (STK16 (human); compound 1.0 µM): 105%
- residual activity (STK16 (human); compound 10.0 µM): 104%
- residual activity (STK24 (human); compound 1.0 µM): 110%
- residual activity (STK24 (human); compound 10.0 µM): 110%
- residual activity (STK33 (human); compound 1.0 µM): 89%
- residual activity (STK33 (human); compound 10.0 µM): 43%
- residual activity (TEK (human); compound 1.0 µM): 105%
- residual activity (TEK (human); compound 10.0 µM): 76%
- residual activity (TESK1 (human); compound 1.0 µM): 91%
- residual activity (TESK1 (human); compound 10.0 µM): 101%
- residual activity (TLK1 (human); compound 1.0 µM): 101%
- residual activity (TLK1 (human); compound 10.0 µM): 115%
- residual activity (TSSK1B (human); compound 1.0 µM): 88%
- residual activity (TSSK1B (human); compound 10.0 µM): 64%
- residual activity (TTBK1 (human); compound 1.0 µM): 112%
- residual activity (TTBK1 (human); compound 10.0 µM): 99%
- residual activity (WNK1 (human); compound 1.0 µM): 109%
- residual activity (WNK1 (human); compound 10.0 µM): 104%
- residual activity (ZAP70 (human); compound 1.0 µM): 98%

SMILES: CN(C)C/C=C/C(=O)Nc1cccc(C(=O)Nc2ccc(Nc3nccc(-c4cccnc4)n3)cc2)c1
- residual activity (ABL1 (human); compound 0.1 µM): 77%
- residual activity (ABL1 (human); compound 1.0 µM): 85%
- residual activity (CDK9 CCNT1 (human); compound 0.1 µM): 22%
- residual activity (CDK9 CCNT1 (human); compound 1.0 µM): 42%
- residual activity (CSNK1G2 (human); compound 0.1 µM): 88%
- residual activity (CSNK1G2 (human); compound 1.0 µM): 88%
- residual activity (DDR2 (human); compound 0.1 µM): 89%
- residual activity (DDR2 (human); compound 1.0 µM): 108%
- residual activity (EIF2AK3 (human); compound 0.1 µM): 90%
- residual activity (EIF2AK3 (human); compound 1.0 µM): 99%
- residual activity (IRAK1 (human); compound 0.1 µM): 26%
- residual activity (IRAK1 (human); compound 1.0 µM): 5%
- residual activity (MAPKAPK3 (human); compound 0.1 µM): 104%
- residual activity (MAPKAPK3 (human); compound 1.0 µM): 101%
- residual activity ([1]; compound 0.1 µM): 99%
- residual activity ([1]; compound 1.0 µM): 105%
- residual activity (PRKAA1 or PRKAA2 (rat); compound 0.1 µM): 92%
- residual activity (PRKAA1 or PRKAA2 (rat); compound 1.0 µM): 87%
- residual activity (PRKCG (human); compound 0.1 µM): 96%
- residual activity (PRKCG (human); compound 1.0 µM): 101%
- residual activity (PTK6 (human); compound 0.1 µM): 81%
- residual activity (PTK6 (human); compound 1.0 µM): 81%
- residual activity (SIK2 (human); compound 0.1 µM): 78%
- residual activity (SIK2 (human); compound 1.0 µM): 67%
- residual activity (SIK3 (human); compound 0.1 µM): 81%
- residual activity (SIK3 (human); compound 1.0 µM): 64%
- residual activity (STK16 (human); compound 0.1 µM): 108%
- residual activity (STK16 (human); compound 1.0 µM): 103%
- residual activity (STK24 (human); compound 0.1 µM): 94%
- residual activity (STK24 (human); compound 1.0 µM): 93%
- residual activity (STK33 (human); compound 0.1 µM): 92%
- residual activity (STK33 (human); compound 1.0 µM): 91%
- residual activity (TEK (human); compound 0.1 µM): 94%
- residual activity (TEK (human); compound 1.0 µM): 84%
- residual activity (TESK1 (human); compound 0.1 µM): 90%
- residual activity (TESK1 (human); compound 1.0 µM): 98%
- residual activity (TLK1 (human); compound 0.1 µM): 99%
- residual activity (TLK1 (human); compound 1.0 µM): 98%
- residual activity (TSSK1B (human); compound 0.1 µM): 88%
- residual activity (TSSK1B (human); compound 1.0 µM): 101%
- residual activity (TTBK1 (human); compound 0.1 µM): 88%
- residual activity (TTBK1 (human); compound 1.0 µM): 79%
- residual activity (ULK1 (human); compound 0.1 µM): 37%
- residual activity (ULK1 (human); compound 1.0 µM): 63%
- residual activity (ULK2 (human); compound 0.1 µM): 50%
- residual activity (ULK2 (human); compound 1.0 µM): 69%
- residual activity (WNK1 (human); compound 0.1 µM): 103%
- residual activity (WNK1 (human); compound 1.0 µM): 117%
- residual activity (ZAP70 (human); compound 0.1 µM): 82%
- residual activity (ZAP70 (human); compound 1.0 µM): 123%
